Test results taken from US11180462B2, “Microbiocidal oxadiazole derivatives” (SYNGENTA PARTICIPATIONS AG, priority 2015, dated 2021).

Key:
[1] = tested on: Glomerella lagenarium (Colletotrichum lagenarium); experiment: Fungicidal activity against Glomerella lagenarium (Colletotrichum lagenarium) liquid culture / cucumber / preventative (anthracnose); assay type: cell-based; conditions: Colletotrichum orbiculare; 20 ppm in the applied formulation; liquid culture (PDB), growth inhibition measured photometrically after 3 to 4 days; compared to untreated control; read-out: disease control
Method in brief: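 Photometric read-out of fungal growth after 2–7 days, expressed as percent antifungal activity versus untreated check. Cryo-stored conidia in PDB; compound at 20 ppm; dark, 24 °C, 96% RH.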

[2] = tested on: Puccinia recondita f. Sp. Tritici; experiment: Fungicidal activity against Puccinia recondita f. sp. tritici / wheat / leaf disc curative (brown rust); assay type: in vivo; conditions: foliar, 24 h, 200 ppm in the applied formulation, wheat leaf segments, curative (applied 1 day after inoculation), compared to untreated control leaf disks, read-out: disease control
Method in brief: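 Curative leaf-segment test: compound diluted in water applied 1 day after spore inoculation of cv. Kanzler wheat segments on agar. Conditions 19° C, 75% RH, 12 h/12 h light cycle. Read-out: % disease control relative to untreated check, 6 to 8 days after application.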

[3] = tested on: Puccinia recondita f. Sp. Tritici; experiment: Fungicidal activity against Puccinia recondita f. sp. tritici / wheat / leaf disc preventative (brown rust); assay type: in vivo; conditions: foliar, 200 ppm in the applied formulation, wheat leaf segments, preventative, compared to untreated control leaf disks, read-out: disease control
Method in brief: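 Compound application precedes infection: segments of wheat cv. Kanzler, sprayed at 200 ppm, are inoculated with a spore suspension after 1 day. Incubation is at 19° C. with 75% relative humidity and 12 h light/12 h darkness, and control versus untreated leaves is rated 7 to 9 days post-application.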

Phakopsora Pachyrhizi = experiment: Fungicidal activity against Phakopsora pachyrhizi / soybean / leaf disc preventative (Asian soybean rust); assay type: in vivo; conditions: foliar, 200 ppm in the applied formulation, soybean leaf disks, compared to untreated control leaf disks, read-out: disease control
Method in brief: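 Preventative soybean leaf-disc test: discs on water agar sprayed with diluted formulated compound, inoculated one day later with spores on the lower surface. Held 24–36 h dark at 20°C, 75% rh, then 12 h light/day; percent disease control versus untreated discs scored 12–14 days after application.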

C#CCN(Cc1ccc(-c2noc(C(F)(F)F)n2)cc1)C(=O)CCC(F)(F)F [Compound 1.169, 4,4,4-trifluoro-N-prop-2-ynyl-N-[[4-[5-(trifluoromethyl)-1,2,4-oxadiazol-3-yl]phenyl]methyl]-butanamide]
≥ 80%: inhibition of growth at 20 ppm [1] | pest or weed control at 200 ppm [2] | pest or weed control at 200 ppm [3] | pest or weed control at 200 ppm (Phakopsora Pachyrhizi)

C#CCN(Cc1ccc(-c2noc(C(F)(F)F)n2)cc1)C(=O)Cc1cccnc1 [Compound 1.170, N-prop-2-ynyl-2-(3-pyridyl)-N-[[4-[5-(trifluoromethyl)-1,2,4-oxadiazol-3-yl]phenyl]methyl]-acetamide]
≥ 80%: inhibition of growth at 20 ppm [1] | pest or weed control at 200 ppm [2] | pest or weed control at 200 ppm [3] | pest or weed control at 200 ppm (Phakopsora Pachyrhizi)

C#CCN(Cc1ccc(-c2noc(C(F)(F)F)n2)cc1)C(=O)C1CCOC1 (stereo not shown) [Compound 1.171, N-prop-2-ynyl-N-[[4-[5-(trifluoromethyl)-1,2,4-oxadiazol-3-yl]phenyl]methyl]-tetrahydrofuran-3-carboxamide]
≥ 80%: inhibition of growth at 20 ppm [1] | pest or weed control at 200 ppm [2] | pest or weed control at 200 ppm [3] | pest or weed control at 200 ppm (Phakopsora Pachyrhizi)

C#CCN(Cc1ccc(-c2noc(C(F)(F)F)n2)cc1)C(=O)CCOC [Compound 1.173, 3-methoxy-N-prop-2-ynyl-N-[[4-[5-(trifluoromethyl)-1,2,4-oxadiazol-3-yl]phenyl]methyl]-propanamide]
≥ 80%: inhibition of growth at 20 ppm [1] | pest or weed control at 200 ppm [2] | pest or weed control at 200 ppm [3] | pest or weed control at 200 ppm (Phakopsora Pachyrhizi)

C#CCN(Cc1ccc(-c2noc(C(F)(F)F)n2)cc1)C(=O)CC(C)C [Compound 1.175, 3-methyl-N-prop-2-ynyl-N-[[4-[5-(trifluoromethyl)-1,2,4-oxadiazol-3-yl]phenyl]methyl]-butanamide]
≥ 80%: inhibition of growth at 20 ppm [1] | pest or weed control at 200 ppm [2] | pest or weed control at 200 ppm [3] | pest or weed control at 200 ppm (Phakopsora Pachyrhizi)

C#CCN(Cc1ccc(-c2noc(C(F)(F)F)n2)cc1)C(=O)C(C)(C)CCl [Compound 1.176, 3-chloro-2,2-dimethyl-N-prop-2-ynyl-N-[[4-[5-(trifluoromethyl)-1,2,4-oxadiazol-3-yl]phenyl]methyl]-propanamide]
≥ 80%: inhibition of growth at 20 ppm [1] | pest or weed control at 200 ppm [2] | pest or weed control at 200 ppm [3] | pest or weed control at 200 ppm (Phakopsora Pachyrhizi)

C#CCN(Cc1ccc(-c2noc(C(F)(F)F)n2)cc1)C(=O)CC(F)(F)F [Compound 1.177, 3,3,3-trifluoro-N-prop-2-ynyl-N-[[4-[5-(trifluoromethyl)-1,2,4-oxadiazol-3-yl]phenyl]methyl]-propanamide]
≥ 80%: inhibition of growth at 20 ppm [1] | pest or weed control at 200 ppm [2] | pest or weed control at 200 ppm [3] | pest or weed control at 200 ppm (Phakopsora Pachyrhizi)

C#CCN(Cc1ccc(-c2noc(C(F)(F)F)n2)cc1)C(=O)C1CCC1 [Compound 1.178, N-prop-2-ynyl-N-[[4-[5-(trifluoromethyl)-1,2,4-oxadiazol-3-yl]phenyl]methyl]-cyclobutane-carboxamide]
≥ 80%: inhibition of growth at 20 ppm [1] | pest or weed control at 200 ppm [2] | pest or weed control at 200 ppm [3] | pest or weed control at 200 ppm (Phakopsora Pachyrhizi)

C#CCN(Cc1ccc(-c2noc(C(F)(F)F)n2)cc1)C(=O)CC=CC [Compound 1.180, N-prop-2-ynyl-N-[[4-[5-(trifluoromethyl)-1,2.4-oxadiazol-3-yl]phenyl]methyl]-pent-3-enamide]
≥ 80%: inhibition of growth at 20 ppm [1] | pest or weed control at 200 ppm [2] | pest or weed control at 200 ppm [3] | pest or weed control at 200 ppm (Phakopsora Pachyrhizi)

C#CCN(Cc1ccc(-c2noc(C(F)(F)F)n2)cc1)C(=O)C1CC1C (stereo not shown) [Compound 1.181, 2-methyl-N-prop-2-ynyl-N-[[4-[5-(trifluoromethyl)-1,2,4-oxadiazol-3-yl]phenyl]methyl]-cyclopropane-carboxamide]
≥ 80%: inhibition of growth at 20 ppm [1] | pest or weed control at 200 ppm [2] | pest or weed control at 200 ppm [3] | pest or weed control at 200 ppm (Phakopsora Pachyrhizi)

C#CCN(Cc1ccc(-c2noc(C(F)(F)F)n2)cc1)C(=O)C(C)(C)C [Compound 1.182, 2,2-dimethyl-N-prop-2-ynyl-N-[[4-[5-(trifluoromethyl)-1,2,4-oxadiazol-3-yl]phenyl]methyl]-propanamide]
≥ 80%: inhibition of growth at 20 ppm [1] | pest or weed control at 200 ppm [2] | pest or weed control at 200 ppm [3] | pest or weed control at 200 ppm (Phakopsora Pachyrhizi)

C#CCN(Cc1ccc(-c2noc(C(F)(F)F)n2)cc1)C(=O)C1(C)CC1 [Compound 1.183, 1-methyl-N-prop-2-ynyl-N-[[4-[5-(trifluoromethyl)-1,2,4-oxadiazol-3-yl]phenyl]methyl]-cyclopropane-carboxamide]
≥ 80%: inhibition of growth at 20 ppm [1] | pest or weed control at 200 ppm [2] | pest or weed control at 200 ppm [3] | pest or weed control at 200 ppm (Phakopsora Pachyrhizi)

C#CCN(Cc1ccc(-c2noc(C(F)(F)F)n2)cc1)C(=O)CC [Compound 1.185, N-prop-2-ynyl-N-[[4-[5-(trifluoromethyl)-1,2,4-oxadiazol-3-yl]phenyl]methyl]-propanamide]
≥ 80%: inhibition of growth at 20 ppm [1] | pest or weed control at 200 ppm [2] | pest or weed control at 200 ppm [3] | pest or weed control at 200 ppm (Phakopsora Pachyrhizi)

C#CCN(Cc1ccc(-c2noc(C(F)(F)F)n2)cc1)C(=O)C(=C)C [Compound 1.187, 2-methyl-N-prop-2-ynyl-N-[[4-[5-(trifluoromethyl)-1,2,4-oxadiazol-3-yl]phenyl]methyl]-prop-2-enamide]
≥ 80%: inhibition of growth at 20 ppm [1] | pest or weed control at 200 ppm [2] | pest or weed control at 200 ppm [3] | pest or weed control at 200 ppm (Phakopsora Pachyrhizi)

C#CCN(Cc1ccc(-c2noc(C(F)(F)F)n2)cc1)C(=O)C1CC1(C)C (stereo not shown) [Compound 1.189, 2,2-dimethyl-N-prop-2-ynyl-N-[[4-[5-(trifluoromethyl)-1,2.4-oxadiazol-3-yl]phenyl]methyl]-cyclopropane-carboxamide]
≥ 80%: inhibition of growth at 20 ppm [1] | pest or weed control at 200 ppm [2] | pest or weed control at 200 ppm [3] | pest or weed control at 200 ppm (Phakopsora Pachyrhizi)

C#CCN(Cc1ccc(-c2noc(C(F)(F)F)n2)cc1)C(=O)C(C)CC (stereo not shown) [Compound 1.191, 2-methyl-N-prop-2-ynyl-N-[[4-[5-(trifluoromethyl)-1,2,4-oxadiazol-3-yl]phenyl]methy]-butanamide]
≥ 80%: inhibition of growth at 20 ppm [1] | pest or weed control at 200 ppm [2] | pest or weed control at 200 ppm [3] | pest or weed control at 200 ppm (Phakopsora Pachyrhizi)

C#CCN(Cc1ccc(-c2noc(C(F)(F)F)n2)cc1)C(=O)C1(C)COC1 [Compound 1.192, 3-methyl-N-prop-2-ynyl-N-[[4-[5-(trifluoromethyl)-1,2,4-oxadiazol-3-yl]phenyl]methyl]-oxetane-3-carboxamide]
≥ 80%: inhibition of growth at 20 ppm [1] | pest or weed control at 200 ppm [2] | pest or weed control at 200 ppm [3] | pest or weed control at 200 ppm (Phakopsora Pachyrhizi)

C#CCN(Cc1ccc(-c2noc(C(F)(F)F)n2)cc1)C(=O)C(CC)COC (stereo not shown) [Compound 1.194, 2-(methoxymethyl)-N-prop-2-ynyl-N-[[4-[5-(trifluoromethyl)-1,2,4-oxadiazol-3-yl]phenyl]methyl]-butanamide]
≥ 80%: inhibition of growth at 20 ppm [1] | pest or weed control at 200 ppm [2] | pest or weed control at 200 ppm [3] | pest or weed control at 200 ppm (Phakopsora Pachyrhizi)

C#CCN(Cc1ccc(-c2noc(C(F)(F)F)n2)cc1)C(=O)CCCOC [Compound 1.196, 4-methoxy-N-prop-2-ynyl-N-[[4-[5-(trifluoromethyl)-1,2,4-oxadiazol-3-yl]phenyl]methyl]-butanamide]
≥ 80%: inhibition of growth at 20 ppm [1] | pest or weed control at 200 ppm [2] | pest or weed control at 200 ppm [3] | pest or weed control at 200 ppm (Phakopsora Pachyrhizi)

C#CCN(Cc1ccc(-c2noc(C(F)(F)F)n2)cc1)C(=O)CC#N [Compound 1.199, 2-cyano-N-prop-2-ynyl-N-[[4-[5-(trifluoromethyl)-1,2,4-oxadiazol-3-yl]phenyl]methyl]-acetamide]
≥ 80%: inhibition of growth at 20 ppm [1] | pest or weed control at 200 ppm [2] | pest or weed control at 200 ppm [3] | pest or weed control at 200 ppm (Phakopsora Pachyrhizi)

C#CCN(Cc1ccc(-c2noc(C(F)(F)F)n2)cc1)C(=O)C1CC1 [Compound 1.201, N-prop-2-ynyl-N-[[4-[5-(trifluoromethyl)-1,2,4-oxadiazol-3-yl]phenyl]methyl]-cyclopropane-carboxamide]
≥ 80%: inhibition of growth at 20 ppm [1] | pest or weed control at 200 ppm [2] | pest or weed control at 200 ppm [3] | pest or weed control at 200 ppm (Phakopsora Pachyrhizi)

C#CCN(Cc1ccc(-c2noc(C(F)(F)F)n2)cc1)C(=O)c1ccccc1 [Compound 1.202, N-prop-2-ynyl-N-[[4-[5-(trifluoromethyl)-1,2,4-oxadiazol-3-yl]phenyl]methyl]-benzamide]
≥ 80%: inhibition of growth at 20 ppm [1] | pest or weed control at 200 ppm [2] | pest or weed control at 200 ppm [3] | pest or weed control at 200 ppm (Phakopsora Pachyrhizi)
